“And” between values parts separate entries of the source, which are not always exact repeats. Equal entries are not always repeated. Where two headings read alike, the source gives them in different places.
How the values were obtained:
[1] = tested on: laboratory-adapted HIV-1 strains; test: microbe, parasite or virus in culture; type: cell-based
HIV-1 Env pseudoviruses [2] = type: cell-based
MT-2 cells = test: Cytotoxicity in MT-2 cells; type: cell-based
TZM-bl cells = test: Cytotoxicity in TZM-bl cells; type: cell-based
U87-CD4-CXCR4 cells = test: Cytotoxicity in U87-CD4-CXCR4 cells; type: cell-based
U87-CD4-CCR5 cells = test: Cytotoxicity in U87-CD4-CCR5 cells; type: cell-based
PBMC = test: Cytotoxicity in PBMCs; type: cell-based, human
[3] = tested on: lab-adapted and primary HIV-1 isolates; test: microbe, parasite or virus in culture; type: cell-based; conditions: PBMC
YU2 core gp120 = test: SPR: binding of YU2 core gp120 to captured mAb 17b in presence of compounds; set-up: species or system HIV-1; conditions: sCD4 15-fold excess, compounds 50-fold excess
A-MLV = test: microbe, parasite or virus in culture; type: cell-based; conditions: control, A-MLV envelope pseudovirus
VSV-G = test: microbe, parasite or virus in culture; type: cell-based; conditions: control, VSV-G envelope pseudovirus
[4] = tested on: fusion between MAGI-CCR5 and HL 2/3 cells; test: HIV-1 cell-cell fusion assay; type: cell-based; conditions: read-out: IC50, cell-cell fusion assay; MAGI-CCR5 and HL 2/3 cells
HIV-1 integrase = HIV-1 integrase (Human immunodeficiency virus type 1 group M subtype B, UniProt P04585); test: HIV-1 integrase assay; type: biochemical; conditions: read-out: IC50, HIV-1 integrase assay
HIV-1IIIB = test: CD4-dependent CXCR4-tropic HIV-1 cell-cell transmission assay; type: cell-based; conditions: read-out: IC50, CXCR4-tropic HIV-1 cell-cell transmission; Ghost X4/R5 and H9/HIV-1IIIB, p24
HIV-1ADA = test: CD4-dependent CCR5-tropic HIV-1 cell-cell transmission assay; type: cell-based; conditions: read-out: IC50, CCR5-tropic HIV-1 cell-cell transmission; Ghost X4/R5 and MOLT-4/HIV-1ADA, p24
HIV-1 Env pseudoviruses [5] = conditions: data previously published ref 19, cited from earlier work
[6] = target: HIV-1 reverse transcriptase (RT) (Human immunodeficiency virus type 1 group M subtype B, UniProt P12497); test: HIV-1 reverse transcriptase; conditions: read-out: IC50, HIV-1 reverse transcriptase (RT) assay
[7] = tested on: HIV-1ADA (CCR5-tropic) pseudovirus; test: Single-cycle infection assay in U87-CD4-CCR5 cells; conditions: U87-CD4-CCR5, HIV-1ADA
[8] = tested on: HIV-1HXB2 (CXCR4-tropic) pseudovirus; test: Single-cycle infection assay in U87-CD4-CXCR4 cells; conditions: U87-CD4-CXCR4, HIV-1HXB2

CC1(C)CC(NC(=O)C(=O)Nc2ccc(Cl)cc2)CC(C)(C)N1 [NBD-556]
IC50 ([1]; RT inhibitor-resistant isolate AZT-R, subtype B, MT-2, X4): 58 ± 14.3 µM
IC50 ([1]; fusion inhibitor-resistant isolate pNL4-3 gp41(36G)V38E,N42S, subtype B, MT-2, X4): 11 ± 0.9 µM
IC50 ([1]; laboratory strain MN, subtype B, MT-2, X4): 15.9 ± 1.6 µM
IC50 ([1]; laboratory strain RF, subtype B, MT-2, R5X4): 18.7 ± 1.3 µM
IC50 ([1]; laboratory strain SF2, subtype B, MT-2, R5X4): ≥ 118 µM
IC50 ([1]; protease inhibitor-resistant isolate HIV-1RF/L-323-12-3, subtype B, MT-2, X4): < 59 µM
IC50 (HIV-1 Env pseudoviruses [2]): 11.5 µM and 9.4 µM
IC50 (HIV-1 Env pseudoviruses [2]; TZM-bl, HIV-1HXB2): 6.9 ± 0.9 µM
share of viruses showing sensitivity at ≤3 μM (HIV-1 Env pseudoviruses [2]; panel of 56 HIV-1 Env pseudoviruses): 7%
IC50 (HIV-1 Env pseudoviruses [2]; subtype A2/D, NIH #11906, QG393.60M.ENV.B7): 3.5 ± 0.2 µM
IC50 (HIV-1 Env pseudoviruses [2]; subtype A2/D, NIH #11907, QG393.60M.ENV.B8): 3.6 ± 0.1 µM
IC50 (HIV-1 Env pseudoviruses [2]; subtype A, KNH1144): 20 ± 3.2 µM
IC50 (HIV-1 Env pseudoviruses [2]; subtype A, NIH #11888, QB726.70M.ENV.C4): 20.2 ± 6 µM
IC50 (HIV-1 Env pseudoviruses [2]; subtype A, NIH #11889, QB726.70M.ENV.B3): 11.3 ± 2.5 µM
IC50 (HIV-1 Env pseudoviruses [2]; subtype A, NIH #11890, QF495.23M.ENV.A1): 13.6 ± 2.3 µM
IC50 (HIV-1 Env pseudoviruses [2]; subtype A, NIH #11891, QF495.23M.ENV.A3): 27.8 ± 9.3 µM
IC50 (HIV-1 Env pseudoviruses [2]; subtype A, NIH #11892, QF495.23M.ENV.B2): 20.4 ± 7 µM
IC50 (HIV-1 Env pseudoviruses [2]; subtype A/E, AA058): 4.1 ± 0.8 µM
IC50 (HIV-1 Env pseudoviruses [2]; subtype A/E, CM244): 5.6 ± 0.8 µM
IC50 (HIV-1 Env pseudoviruses [2]; subtype A/E, NIH #11603 (potential), CRF01_AE clone 269): 10.7 ± 1.5 µM
IC50 (HIV-1 Env pseudoviruses [2]; subtype A/G, NIH #11601, CRF02_AG clone 263): 7 ± 2.2 µM
IC50 (HIV-1 Env pseudoviruses [2]; subtype A/G, NIH #11602, CRF02_AG clone 266): 4.6 ± 1.6 µM
IC50 (HIV-1 Env pseudoviruses [2]; subtype A/G, NIH #11605, CRF02_AG clone 278): 6.5 ± 1.1 µM
IC50 (HIV-1 Env pseudoviruses [2]; subtype B, B41): 4.5 ± 2 µM
IC50 (HIV-1 Env pseudoviruses [2]; subtype B, NIH #11018, QH0692, clone 42): 2 ± 0.6 µM
IC50 (HIV-1 Env pseudoviruses [2]; subtype B, NIH #11022, PVO, clone 4): 3.5 ± 0.7 µM
IC50 (HIV-1 Env pseudoviruses [2]; subtype B, NIH #11023, TRO, clone 11): 4.1 ± 0.6 µM
IC50 (HIV-1 Env pseudoviruses [2]; subtype B, NIH #11033, pWIT04160 clone 33): 4.8 ± 0.8 µM
IC50 (HIV-1 Env pseudoviruses [2]; subtype B, NIH #11035, PREJ04541 clone 67): 3.4 ± 0.2 µM
IC50 (HIV-1 Env pseudoviruses [2]; subtype B, NIH #11036, pRHPA4259 clone 7): 4.3 ± 0.5 µM
IC50 (HIV-1 Env pseudoviruses [2]; subtype B, NIH #11037, PTHR04156 clone 18): 8.4 ± 2.4 µM
IC50 (HIV-1 Env pseudoviruses [2]; subtype B, NIH #11563, p1058_11.B11.1550, R5X4-tropic): 1.9 ± 1 µM
IC50 (HIV-1 Env pseudoviruses [2]; subtype C, NIH #11306, Du156, clone 12): 5 ± 0.9 µM
IC50 (HIV-1 Env pseudoviruses [2]; subtype C, NIH #11307, Du172, clone 17): 4.8 ± 0.2 µM
IC50 (HIV-1 Env pseudoviruses [2]; subtype C, NIH #11308, Du422, clone 1): 6.1 ± 0.5 µM
IC50 (HIV-1 Env pseudoviruses [2]; subtype C, NIH #11309, ZM197M.PB7): 3.8 ± 0.3 µM
IC50 (HIV-1 Env pseudoviruses [2]; subtype C, NIH #11310, ZM214M.PL15): 4.1 ± 0.7 µM
IC50 (HIV-1 Env pseudoviruses [2]; subtype C, NIH #11311, ZM233M.PB6): 6.6 ± 0.8 µM
IC50 (HIV-1 Env pseudoviruses [2]; subtype C, NIH #11312, ZM249M.PL1): 6.1 ± 0.3 µM
IC50 (HIV-1 Env pseudoviruses [2]; subtype C, NIH #11313, ZM53M.PB12): 14.6 ± 1 µM
IC50 (HIV-1 Env pseudoviruses [2]; subtype C, NIH #11314, ZM109F.PB4): 6.2 ± 0.3 µM
IC50 (HIV-1 Env pseudoviruses [2]; subtype C, NIH #11315, ZM135M.PL10a): 2.2 ± 0.6 µM
IC50 (HIV-1 Env pseudoviruses [2]; subtype C, NIH #11316, CAP45.2.00.G3): 9.6 ± 0.3 µM
IC50 (HIV-1 Env pseudoviruses [2]; subtype C, NIH #11317, CAP210.2.00.E8): 5.3 ± 0.6 µM
IC50 (HIV-1 Env pseudoviruses [2]; subtype C, NIH #11908, QB099.391 M.ENV.B1): 5.7 ± 0.9 µM
IC50 (HIV-1 Env pseudoviruses [2]; subtype C, NIH #11909, QB099.391 M.ENV.C8): 3.6 ± 0.9 µM
IC50 (HIV-1 Env pseudoviruses [2]; subtype C, NIH #11910, QC406.70M.ENV.F3): 3.6 ± 0.9 µM
IC50 (HIV-1 Env pseudoviruses [2]; subtype D, NIH #11911, QA013.70I.ENV.H1): 9.4 ± 2.6 µM
IC50 (HIV-1 Env pseudoviruses [2]; subtype D, NIH #11912, QA013.70I.ENV.M12): 5.4 ± 0.3 µM
IC50 (HIV-1 Env pseudoviruses [2]; subtype D, NIH #11914, QA465.59M.ENV.D1): 6.1 ± 0.5 µM
IC50 (HIV-1 Env pseudoviruses [2]; subtype D, NIH #11916, QD435.100M.ENV.B5): 4.4 ± 1 µM
IC50 (HIV-1 Env pseudoviruses [2]; subtype D, NIH #11918, QD435.100M.ENV.E1): 6.2 ± 1.7 µM
CC50 (MT-2 cells): > 280 µM
CC50 (TZM-bl cells): ~60 µM
CC50 (U87-CD4-CXCR4 cells): ~60 µM
CC50 (U87-CD4-CCR5 cells): ~60 µM
CC50 (PBMC): > 280 µM
IC50 ([3]; laboratory strain 89.6, subtype B, R5X4): 4.8 ± 1 µM
IC50 ([3]; laboratory strain BaL, subtype B, R5): ≥ 118 µM
IC50 ([3]; laboratory strain SF162, subtype B, R5): 48.9 ± 7.3 µM
IC50 ([3]; primary isolate 92US657, subtype B, R5): 48 ± 1.65 µM
IC50 ([3]; primary isolate 93MW959, subtype C, R5): 57.2 ± 8.7 µM
IC50 ([3]; primary isolate 93TH060, subtype E, R5): > 45 µM
IC50 ([3]; primary isolate RU570, subtype G, R5): 19.5 ± 2.3 µM
enhancement of mAb 17b binding to YU2 core gp120 (in words) (YU2 core gp120): highest enhancement
IC50 (A-MLV): > 60 µM
IC50 (VSV-G): > 60 µM
IC50 [4]: 6.5 µM
IC50 (HIV-1 integrase): > 200 µM
IC50 (HIV-1IIIB): ~60 µM
IC50 (HIV-1ADA): ~60 µM
IC50 (HIV-1 Env pseudoviruses [5]; subtype A, NIH #11887, Q259env.w6): 6.9 ± 0.9 µM
IC50 (HIV-1 Env pseudoviruses [5]; subtype A/D, NIH #11901, QA790.204I.ENV.A4): 12.3 ± 1.8 µM
IC50 (HIV-1 Env pseudoviruses [5]; subtype A/D, NIH #11903, QA790.204I.ENV.C8): 5 ± 1 µM
IC50 (HIV-1 Env pseudoviruses [5]; subtype A/D, NIH #11904, QA790.204I.ENV.E2): 7.1 ± 0.5 µM
IC50 (HIV-1 Env pseudoviruses [5]; subtype B, NIH #11024, AC10.0, clone 29): 8.9 ± 3 µM
IC50 (HIV-1 Env pseudoviruses [5]; subtype B, NIH #11038, pCAAN5342 clone A2): 2.4 ± 0.3 µM
IC50 (HIV-1 Env pseudoviruses [5]; subtype B, NIH #11058, SC422661.8): 4.8 ± 0.4 µM
IC50 (HIV-1 Env pseudoviruses [5]; subtype B, NIH #11578, pWEAUd15.410.5017, R5X4-tropic): 4.9 ± 0.8 µM
IC50 (HIV-1 Env pseudoviruses [5]; subtype D, NIH #11913, QA465.59M.ENV.A1): 4.8 ± 0.2 µM
IC50 [6]: > 200 µM
IC50 [7]: 7.4 ± 0.8 µM
IC50 [8]: 9.5 ± 0.6 µM
